In the NIST ThermoML archive (doi:10.1016/j.jct.2005.03.012):
Numbers after ± are expanded uncertainties.

Test: excess molar enthalpy (molar enthalpy of mixing); xn = mol fraction of the nth substance listed
Conditions: Liquid

CO [methanol] + O
excess molar enthalpy (505.01 K, 10000 kPa, x1 = 0.2): 0.0844 ± 0.00335 kcal/mol | excess molar enthalpy (505.63 K, 10000 kPa, x1 = 0.6): 0.0984 ± 0.00382 kcal/mol | excess molar enthalpy (505.93 K, 8500 kPa, x1 = 0.3): 0.0752 ± 0.00311 kcal/mol | excess molar enthalpy (506.02 K, 8500 kPa, x1 = 0.2): 0.0617 ± 0.00263 kcal/mol | excess molar enthalpy (506.29 K, 8500 kPa, x1 = 0.4): 0.0736 ± 0.00311 kcal/mol | excess molar enthalpy (506.52 K, 10000 kPa, x1 = 0.2): 0.0828 ± 0.00335 kcal/mol | excess molar enthalpy (506.53 K, 10000 kPa, x1 = 0.4): 0.108 ± 0.00406 kcal/mol | excess molar enthalpy (506.59 K, 8500 kPa, x1 = 0.1): 0.0371 ± 0.00189 kcal/mol | excess molar enthalpy (506.7 K, 8500 kPa, x1 = 0.5): 0.0603 ± 0.00263 kcal/mol | excess molar enthalpy (507.3 K, 8500 kPa, x1 = 0.6): 0.0391 ± 0.00201 kcal/mol | excess molar enthalpy (507.4 K, 10000 kPa, x1 = 0.8): 0.0512 ± 0.00232 kcal/mol | excess molar enthalpy (507.5 K, 10000 kPa, x1 = 0.6): 0.093 ± 0.00359 kcal/mol | excess molar enthalpy (507.82 K, 8500 kPa, x1 = 0.7): 0.0164 ± 0.00165 kcal/mol | excess molar enthalpy (507.86 K, 8500 kPa, x1 = 0.1): 0.0344 ± 0.00182 kcal/mol | excess molar enthalpy (508.01 K, 8500 kPa, x1 = 0.2): 0.0531 ± 0.00239 kcal/mol | excess molar enthalpy (508.15 K, 8500 kPa, x1 = 0.1): 0.0342 ± 0.00182 kcal/mol | excess molar enthalpy (508.15 K, 8500 kPa, x1 = 0.2): 0.0525 ± 0.00237 kcal/mol | excess molar enthalpy (508.15 K, 8500 kPa, x1 = 0.3): 0.0606 ± 0.00263 kcal/mol | excess molar enthalpy (508.15 K, 8500 kPa, x1 = 0.4): 0.0578 ± 0.00263 kcal/mol | excess molar enthalpy (508.15 K, 8500 kPa, x1 = 0.5): 0.0455 ± 0.00215 kcal/mol | excess molar enthalpy (508.15 K, 8500 kPa, x1 = 0.6): 0.0288 ± 0.00179 kcal/mol | excess molar enthalpy (508.15 K, 8500 kPa, x1 = 0.7): 0.012 ± 0.00167 kcal/mol | excess molar enthalpy (508.15 K, 8500 kPa, x1 = 0.8): -0.00588 ± 0.00174 kcal/mol | excess molar enthalpy (508.15 K, 8500 kPa, x1 = 0.9): -0.0143 ± 0.00179 kcal/mol | excess molar enthalpy (508.15 K, 10000 kPa, x1 = 0.2): 0.0818 ± 0.00335 kcal/mol | excess molar enthalpy (508.15 K, 10000 kPa, x1 = 0.4): 0.103 ± 0.00382 kcal/mol | excess molar enthalpy (508.15 K, 10000 kPa, x1 = 0.6): 0.0886 ± 0.00359 kcal/mol | excess molar enthalpy (508.15 K, 10000 kPa, x1 = 0.8): 0.0489 ± 0.00225 kcal/mol | excess molar enthalpy (508.29 K, 8500 kPa, x1 = 0.8): -0.00834 ± 0.00179 kcal/mol | excess molar enthalpy (508.45 K, 8500 kPa, x1 = 0.9): -0.0172 ± 0.00189 kcal/mol | excess molar enthalpy (508.63 K, 10000 kPa, x1 = 0.8): 0.0472 ± 0.00232 kcal/mol | excess molar enthalpy (508.68 K, 8500 kPa, x1 = 0.4): 0.0514 ± 0.00234 kcal/mol | excess molar enthalpy (509.15 K, 8500 kPa, x1 = 0.3): 0.0516 ± 0.00234 kcal/mol | excess molar enthalpy (509.29 K, 8500 kPa, x1 = 0.5): 0.03 ± 0.00167 kcal/mol | excess molar enthalpy (509.71 K, 10000 kPa, x1 = 0.2): 0.0786 ± 0.00311 kcal/mol | excess molar enthalpy (509.71 K, 10000 kPa, x1 = 0.6): 0.0815 ± 0.00335 kcal/mol | excess molar enthalpy (509.71 K, 10000 kPa, x1 = 0.8): 0.0423 ± 0.0022 kcal/mol | excess molar enthalpy (509.91 K, 8500 kPa, x1 = 0.1): 0.0298 ± 0.00167 kcal/mol | excess molar enthalpy (509.91 K, 8500 kPa, x1 = 0.2): 0.0434 ± 0.00208 kcal/mol | excess molar enthalpy (509.91 K, 8500 kPa, x1 = 0.3): 0.0466 ± 0.00217 kcal/mol | excess molar enthalpy (509.91 K, 8500 kPa, x1 = 0.4): 0.0384 ± 0.00194 kcal/mol | excess molar enthalpy (509.91 K, 8500 kPa, x1 = 0.5): 0.0221 ± 0.00146 kcal/mol | excess molar enthalpy (509.91 K, 8500 kPa, x1 = 0.6): 0.00275 ± 0.00127 kcal/mol | excess molar enthalpy (509.91 K, 8500 kPa, x1 = 0.7): -0.0163 ± 0.00174 kcal/mol | excess molar enthalpy (509.91 K, 8500 kPa, x1 = 0.8): -0.0325 ± 0.00227 kcal/mol | excess molar enthalpy (509.91 K, 8500 kPa, x1 = 0.9): -0.037 ± 0.00237 kcal/mol | excess molar enthalpy (510.17 K, 8500 kPa, x1 = 0.7): -0.0212 ± 0.00182 kcal/mol | excess molar enthalpy (510.19 K, 10000 kPa, x1 = 0.3): 0.0908 ± 0.00645 kcal/mol | excess molar enthalpy (510.22 K, 8500 kPa, x1 = 0.6): 0.00151 ± 0.0012 kcal/mol | excess molar enthalpy (510.22 K, 8500 kPa, x1 = 0.8): -0.0352 ± 0.00239 kcal/mol | excess molar enthalpy (510.43 K, 10000 kPa, x1 = 0.4): 0.0943 ± 0.00741 kcal/mol | excess molar enthalpy (510.63 K, 10000 kPa, x1 = 0.2): 0.0733 ± 0.00454 kcal/mol | excess molar enthalpy (510.71 K, 8500 kPa, x1 = 0.9): -0.0418 ± 0.00263 kcal/mol | excess molar enthalpy (510.88 K, 10000 kPa, x1 = 0.5): 0.0876 ± 0.00765 kcal/mol | excess molar enthalpy (511.51 K, 10000 kPa, x1 = 0.1): 0.0425 ± 0.00263 kcal/mol | excess molar enthalpy (511.67 K, 10000 kPa, x1 = 0.6): 0.0678 ± 0.00669 kcal/mol | excess molar enthalpy (512.18 K, 10000 kPa, x1 = 0.7): 0.0484 ± 0.00526 kcal/mol | excess molar enthalpy (512.47 K, 10000 kPa, x1 = 0.5): 0.0767 ± 0.00574 kcal/mol | excess molar enthalpy (512.6 K, 10000 kPa, x1 = 0.4): 0.0828 ± 0.00526 kcal/mol | excess molar enthalpy (512.67 K, 10000 kPa, x1 = 0.8): 0.0257 ± 0.00311 kcal/mol | excess molar enthalpy (512.9 K, 10000 kPa, x1 = 0.3): 0.0793 ± 0.00454 kcal/mol | excess molar enthalpy (512.9 K, 10000 kPa, x1 = 0.9): 0.00574 ± 0.00127 kcal/mol | excess molar enthalpy (513.15 K, 8500 kPa, x1 = 0.1): 0.011 ± 0.0055 kcal/mol | excess molar enthalpy (513.15 K, 8500 kPa, x1 = 0.2): 0.00782 ± 0.00574 kcal/mol | excess molar enthalpy (513.15 K, 8500 kPa, x1 = 0.3): -0.012 ± 0.00574 kcal/mol | excess molar enthalpy (513.15 K, 8500 kPa, x1 = 0.4): -0.0294 ± 0.00598 kcal/mol | excess molar enthalpy (513.15 K, 8500 kPa, x1 = 0.5): -0.0556 ± 0.00693 kcal/mol | excess molar enthalpy (513.15 K, 8500 kPa, x1 = 0.6): -0.0928 ± 0.00837 kcal/mol | excess molar enthalpy (513.15 K, 8500 kPa, x1 = 0.7): -0.14 ± 0.01 kcal/mol | excess molar enthalpy (513.15 K, 8500 kPa, x1 = 0.8): -0.164 ± 0.011 kcal/mol | excess molar enthalpy (513.15 K, 8500 kPa, x1 = 0.9): -0.155 ± 0.01 kcal/mol | excess molar enthalpy (513.15 K, 10000 kPa, x1 = 0.1): 0.0396 ± 0.00201 kcal/mol | excess molar enthalpy (513.15 K, 10000 kPa, x1 = 0.2): 0.0663 ± 0.00287 kcal/mol | excess molar enthalpy (513.15 K, 10000 kPa, x1 = 0.3): 0.0779 ± 0.00311 kcal/mol | excess molar enthalpy (513.15 K, 10000 kPa, x1 = 0.4): 0.0799 ± 0.00311 kcal/mol | excess molar enthalpy (513.15 K, 10000 kPa, x1 = 0.5): 0.0728 ± 0.00311 kcal/mol | excess molar enthalpy (513.15 K, 10000 kPa, x1 = 0.6): 0.0598 ± 0.00263 kcal/mol | excess molar enthalpy (513.15 K, 10000 kPa, x1 = 0.7): 0.0408 ± 0.00215 kcal/mol | excess molar enthalpy (513.15 K, 10000 kPa, x1 = 0.8): 0.0228 ± 0.00172 kcal/mol | excess molar enthalpy (513.15 K, 10000 kPa, x1 = 0.9): 0.00569 ± 0.00146 kcal/mol | excess molar enthalpy (513.61 K, 10000 kPa, x1 = 0.2): 0.0641 ± 0.00406 kcal/mol | excess molar enthalpy (513.87 K, 10000 kPa, x1 = 0.1): 0.0385 ± 0.00217 kcal/mol | excess molar enthalpy (513.88 K, 10000 kPa, x1 = 0.6): 0.0498 ± 0.00478 kcal/mol | excess molar enthalpy (514.32 K, 8500 kPa, x1 = 0.1): -0.00899 ± 0.012 kcal/mol | excess molar enthalpy (514.32 K, 8500 kPa, x1 = 0.2): -0.0402 ± 0.0127 kcal/mol | excess molar enthalpy (514.32 K, 8500 kPa, x1 = 0.3): -0.0669 ± 0.0141 kcal/mol | excess molar enthalpy (514.32 K, 8500 kPa, x1 = 0.4): -0.118 ± 0.0177 kcal/mol | excess molar enthalpy (514.32 K, 8500 kPa, x1 = 0.5): -0.16 ± 0.0191 kcal/mol | excess molar enthalpy (514.32 K, 8500 kPa, x1 = 0.6): -0.183 ± 0.0198 kcal/mol | excess molar enthalpy (514.32 K, 8500 kPa, x1 = 0.7): -0.214 ± 0.021 kcal/mol | excess molar enthalpy (514.32 K, 8500 kPa, x1 = 0.8): -0.247 ± 0.0215 kcal/mol | excess molar enthalpy (514.32 K, 8500 kPa, x1 = 0.9): -0.28 ± 0.0206 kcal/mol | excess molar enthalpy (514.44 K, 10000 kPa, x1 = 0.9): -0.00217 ± 0.000956 kcal/mol | excess molar enthalpy (514.48 K, 10000 kPa, x1 = 0.7): 0.0282 ± 0.00311 kcal/mol | excess molar enthalpy (514.52 K, 10000 kPa, x1 = 0.8): 0.0107 ± 0.00177 kcal/mol | excess molar enthalpy (514.98 K, 10000 kPa, x1 = 0.1): 0.0354 ± 0.00191 kcal/mol | excess molar enthalpy (514.98 K, 10000 kPa, x1 = 0.2): 0.0587 ± 0.00263 kcal/mol | excess molar enthalpy (514.98 K, 10000 kPa, x1 = 0.3): 0.0676 ± 0.00287 kcal/mol | excess molar enthalpy (514.98 K, 10000 kPa, x1 = 0.4): 0.0676 ± 0.00287 kcal/mol | excess molar enthalpy (514.98 K, 10000 kPa, x1 = 0.5): 0.0582 ± 0.00263 kcal/mol | excess molar enthalpy (514.98 K, 10000 kPa, x1 = 0.6): 0.0411 ± 0.00217 kcal/mol | excess molar enthalpy (514.98 K, 10000 kPa, x1 = 0.7): 0.0222 ± 0.00167 kcal/mol | excess molar enthalpy (514.98 K, 10000 kPa, x1 = 0.8): 0.00755 ± 0.00139 kcal/mol | excess molar enthalpy (514.98 K, 10000 kPa, x1 = 0.9): -0.00311 ± 0.00134 kcal/mol
